Laboratory results published in US6586438B2, “Antidiabetic formulation and method” (Bristol-Myers Squibb Co., priority 1999, dated 2003).

Key:
Format in all cases: in vivo, human
[1] = system: drug naive patients with type 2 diabetes mellitus; assay: Double-blind first line therapy clinical study: hemoglobin A1c (HbA1c); conditions: for frequency of subjects achieving glycemic target of HbA1c<7%: following 20 weeks of double-blind therapy; for glycemic response for baseline HbA1c levels >9%: initial therapy
Protocol: The dosage strengths of fixed combination product evaluated included metformin 250 mg with glyburide 1.25 mg, and metformin 500 mg with glyburide 2.5 mg. Glycemic control was assessed using Hemoglobin A1c (HbA1c), the gold-standard measure of long-term glycemic control. Mean change from baseline in HbA1c following a 20 week treatment period (4 weeks stable once daily dose, 4 week titration and 12 weeks stable dose) were compared. The treatment phase continued for an additional 12 weeks to assess durability of efficacy. This study was a 34 week, multicenter, randomized, placebo-controlled, double-blind, parallel study with an optional long-term, open-label treatment phase. The primary outcome variable for efficacy was the change from baseline in HbA1c of the two combination therapies relative to placebo following 20 weeks of randomized treatment. 2. […] Therapeutic plasma glucose response will be defined as a FPG<126 mg/dL (based on current ADA guidelines for FPG). […] Patients were drug naive or had no oral antihyperglycemic therapy for the 2 months prior to screening. […] However, recruitment continued for up to 6 months to recruit up to a maximum of 150 patients per arm to provide additional safety information. The design included 3 periods as follows: Period B began the randomized, double-blind, parallel quadruple dummy treatment phase. Eligible patients were randomized to 1 of 5 study arms which included placebo, glyburide monotherapy, metformin monotherapy, and two different dose strengths of fixed combination metformin/glyburide product (Examples 1 and 2). Subjects were maintained on once daily dosing for a 4 week period so that the contribution of the individual components of the combination product can be assessed by short term glycemic parameters. Period C was the continuation of the randomized, double-blind treatment phase. Subjects were titrated for glycemic control over the first four weeks then dose was maintained for a 24 week stable dose treatment segment. Analysis for the primary outcome, the change from baseline in HbA1c of the two combination therapies (Examples 1 and 2) relative to placebo, was assessed at week 16 of Period C which was after 20 weeks of randomized, double-blind treatment. This was done at this time as there had been adequate time for stabilization of HbA1c and for safety reasons as it was anticipated that a high number of placebo treated patients may have had to discontinue randomized study medication due to insufficient glycemic control as treatment duration was extended. […] The study remained blinded and those subjects who discontinued randomized study drug due to lack of efficacy were eligible to begin the long-term, open-label treatment phase with fixed combination product. Following completion of the single-blind lead-in phase (Period A), qualifying subjects commenced therapy in the randomized, double-blind treatment phase (Period B). […] Following completion of the 4 week stable once daily dose phase (Period B) subjects continued the same randomized therapy in the 28 week titration/stable dose treatment phase (Period C). Study medication was titrated at visits Cl, C15 and C29. Medication was dosed with the first morning meal and with the evening meal. […] After the 4 week titration segment in Period C, subjects continued on a stable dose of study medication for the remainder of Period C.

[2] = system: drug naive patients with type 2 diabetes mellitus; assay: Double-blind first line therapy clinical study: post-prandial glucose (PPG) and PPG excursion; conditions: for 2-hour postprandial glucose excursion from a fasting baseline: placebo 40.3 mg/dL; for decrease in post-prandial glucose excursion: week 20
Protocol: The term “post-prandial excursion” as employed herein refers to the difference between post-prandial glucose (PPG) and fasting plasma glucose (FPG). […] The dosage strengths of fixed combination product evaluated included metformin 250 mg with glyburide 1.25 mg, and metformin 500 mg with glyburide 2.5 mg. Glycemic control was assessed using Hemoglobin A1c (HbA1c), the gold-standard measure of long-term glycemic control. Mean change from baseline in HbA1c following a 20 week treatment period (4 weeks stable once daily dose, 4 week titration and 12 weeks stable dose) were compared. The treatment phase continued for an additional 12 weeks to assess durability of efficacy. This study was a 34 week, multicenter, randomized, placebo-controlled, double-blind, parallel study with an optional long-term, open-label treatment phase. […] 3. […] Patients were drug naive or had no oral antihyperglycemic therapy for the 2 months prior to screening. […] However, recruitment continued for up to 6 months to recruit up to a maximum of 150 patients per arm to provide additional safety information. The design included 3 periods as follows: Period B began the randomized, double-blind, parallel quadruple dummy treatment phase. Eligible patients were randomized to 1 of 5 study arms which included placebo, glyburide monotherapy, metformin monotherapy, and two different dose strengths of fixed combination metformin/glyburide product (Examples 1 and 2). Subjects were maintained on once daily dosing for a 4 week period so that the contribution of the individual components of the combination product can be assessed by short term glycemic parameters. Period C was the continuation of the randomized, double-blind treatment phase. Subjects were titrated for glycemic control over the first four weeks then dose was maintained for a 24 week stable dose treatment segment. Analysis for the primary outcome, the change from baseline in HbA1c of the two combination therapies (Examples 1 and 2) relative to placebo, was assessed at week 16 of Period C which was after 20 weeks of randomized, double-blind treatment. This was done at this time as there had been adequate time for stabilization of HbA1c and for safety reasons as it was anticipated that a high number of placebo treated patients may have had to discontinue randomized study medication due to insufficient glycemic control as treatment duration was extended. […] The study remained blinded and those subjects who discontinued randomized study drug due to lack of efficacy were eligible to begin the long-term, open-label treatment phase with fixed combination product. Following completion of the single-blind lead-in phase (Period A), qualifying subjects commenced therapy in the randomized, double-blind treatment phase (Period B). […] Following completion of the 4 week stable once daily dose phase (Period B) subjects continued the same randomized therapy in the 28 week titration/stable dose treatment phase (Period C). Study medication was titrated at visits Cl, C15 and C29. Medication was dosed with the first morning meal and with the evening meal. […] After the 4 week titration segment in Period C, subjects continued on a stable dose of study medication for the remainder of Period C.

[3] = system: drug naive patients with type 2 diabetes mellitus; assay: Double-blind first line therapy clinical study: body weight and plasma lipid profile; conditions: as glycemic control improved
Description: This study was a 34 week, multicenter, randomized, placebo-controlled, double-blind, parallel study with an optional long-term, open-label treatment phase. […] Patients were drug naive or had no oral antihyperglycemic therapy for the 2 months prior to screening. […] However, recruitment continued for up to 6 months to recruit up to a maximum of 150 patients per arm to provide additional safety information. The design included 3 periods as follows: Period B began the randomized, double-blind, parallel quadruple dummy treatment phase. Eligible patients were randomized to 1 of 5 study arms which included placebo, glyburide monotherapy, metformin monotherapy, and two different dose strengths of fixed combination metformin/glyburide product (Examples 1 and 2). Subjects were maintained on once daily dosing for a 4 week period so that the contribution of the individual components of the combination product can be assessed by short term glycemic parameters. Period C was the continuation of the randomized, double-blind treatment phase. […] Analysis for the primary outcome, the change from baseline in HbA1c of the two combination therapies (Examples 1 and 2) relative to placebo, was assessed at week 16 of Period C which was after 20 weeks of randomized, double-blind treatment. […]

[4] = Week 20 of double-blind therapy
[5] = Week 32 of double-blind therapy

| SMILES | mean HbA1c level [1, 4] [%] | mean HbA1c level [1, 5] [%] | frequency of subjects achieving glycemic target of HbA1c<7% [1] [%] | glycemic response for baseline HbA1c levels >9% [1] | 2-hour postprandial glucose excursion from a fasting baseline [2] [mg/dL] | decrease in post-prandial glucose excursion [2] | early weight gain [3] [kg] | postprandial glucose excursion lowering, comparison in words ([2]; evaluating the excursion rather than the absolute value) |
| --- | --- | --- | --- | --- | --- | --- | --- | --- |
| COc1ccc(Cl)cc1C(=O)NCCc1ccc(S(=O)(=O)NC(=O)NC2CCCCC2)cc1 [glyburide] | 6.64 | 6.78 | 60 | plateauing of glycemic response | 38.2 | 6.8 | 2 | – |
| CN(C)C(=N)N=C(N)N [metformin] | 6.79 | 6.96 | 50 | plateauing of glycemic response | 29.5 | 15.2 | – | better postprandial glucose lowering than glyburide and placebo |
